In patent publication US20250250251A1, “PIPERIDINYLPYRIDINYLCARBONITRILE DERIVATIVES AS INHIBITORS OF GLUTAMINYL-PEPTIDE CYCLOTRANSFERASE AND GLUTAMINYL-PEPTIDE CYCLOTRANSFERASE LIKE PROTEIN” (Boehringer Ingelheim International GmbH, priority 2024, published 2025):

Columns and labels:
[1] = test system: SIRPα signalling induced by Raji cells; test: Assay B: SIRPα signalling assay using Raji cells; assay type: cell-based; conditions: Homo sapiens, Table 5, prior art compounds, read-out: Inhibition of SIRPα signalling induced by Raji cells: IC50
Procedure, shortened: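 SIRPα signalling induced by Raji cells in a PathHunter reporter line, read as β-galactosidase complementation luminescence. Detection reagent 1 added for 15 min, then reagent 2 for 60 min in the dark, both at room temperature.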

CYP3A4 mRNA = test: Assay D: CYP induction screening assay in primary human hepatocytes; assay type: in vitro ADME; conditions: Table 10, prior art compounds, 48 h
Procedure, shortened: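 Single-donor cryopreserved human hepatocytes on collagen with Matrigel overlay were exposed to test compound at […] (0.1% DMSO) for 48 h, medium renewed at 24 h. CYP3A4 mRNA quantified by QuantiGene Plex/Luminex, normalised to geometric mean of RPL32, EIF4E2, GUSB and expressed relative to solvent control.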

Structure (SMILES): Cn1cnnc1C1CCN(c2c(-c3ccnnc3)ccc(Cl)c2C#N)CC1 [Compound 33, reference compound]
- IC50 [1]: 132 nM
- n-fold induction of CYP3A4 at 10 μM (CYP3A4 mRNA): 1.7 n-fold
